The subject of one assay is SAPK. The assay can be described thus: SAPK tyrosine phosphorylation (anti-SAPK IP, anti-PY immunoblot). The format is cell-based, human. To be noted: 10 mM, time course, vs tempol or untreated controls. On the procedure:
(§1) FIGS. 5A, 5B, 5C. Tempo stimulates tyrosine phosphorylation and activity of SAPK. […] 5A. WCLs (1 mg) were immunoprecipitated with agarose-conjugated anti-SAPK antibody, followed by immunoblotting with anti-PY MAb. 5B. In other independent experiments, anti-SAPK immunoprecipitates were first probed with anti-PY MAb (top), and the blot was then reprobed with anti-SAPK antibody (bottom). 5C. […] WCLs were immunoprecipitated with anti-JNK1 antibody, and the JNK1 activity in immunoprecipitates was measured using GST-cJun (˜41 kDa) as a substrate. UT, untreated cells grown overnight in serum-free medium; CONT/Control, cells grown in serum-free medium overnight, and treated with 1% ethanol for 2 h.
Immunoprecipitation and Immunoblotting—Whole cell lysate (1 mg) was immunoprecipitated with the appropriate agarose-conjugated antibody (1 ug/ml of lysis buffer) overnight at 4° C. with constant agitation. For SAPK immunoprecipitation, WCL (1 mg) was immunoprecipitated with anti-SAPK antibody (5 ug/ml) overnight followed by addition of protein A-Agarose (50 ul of 250 ul/ml stock) and incubation for 2 h at 4° C. Immune-complex beads were collected by microcentrifugation at 15,000×g for 5 min followed by three washes with lysis buffer. […] The bands of interest were quantified by ImageQuant software version 3.3 (Molecular Dynamics Personal Densitometer, Sunnyvale, Calif.). […]
(A western blot detects proteins with antibodies after separation by electrophoresis.)

A further assay concerns PC-3 cells. The assay can be described thus: Annexin V apoptosis in prostate cancer cells (5% BCS). The format is cell-based, human. To be noted: 2.5 mM, 24 hr. On the procedure: (§2) Cells were grown overnight in medium containing 10% BCS in T-25 flasks, switched to medium containing 5% BCS and treated with tempo. Following treatment, cells were washed, trypsinized, and resuspended in […] of 1× binding buffer as described before. […] (9A1–9A3): Cytograms of untreated (9A1); 0.1% ethanol-treated (24 hr) (9A2); and tempo-treated DU145 cells (2.5 mM, 24 hr) (9A3). […] (9B1–9B2), (9C1–9C2), (9D1–9D2): apoptosis (9B1, 9C1, 9D1) and necrosis (9B2, 9C2, […]) in cells treated with tempo (B, 2.5 mM; C, 24 hr; D, doses and times as indicated). Values shown are mean q S.D. of triplicate determination per point in each treatment category.
(§3) To investigate tempo's effect on prostate cancer cells, human androgen-independent prostate cancer-derived cell lines (DU145 and PC3) were grown to near confluence in 75 cm^2-tissue flasks in Improved Minimum Essential Medium (IMEM) (Cellgro) containing 10% bovine calf serum (BCS) supplemented with 2 mM L-glutamine and 200 IU/ml penicillin and streptomycin mixture in a humidified atmosphere of 5% CO2:95% air at 37° C. Human androgen-dependent prostate cancer-derived cell line (LNCaP) was cultured in RPMI 1640 medium containing 10% BCS and 2 mM L-glutamine. Cells were trypsinized and seeded in equal numbers overnight in 150 mm^2 tissue culture dishes (two dishes per flask) or 25 cm^2 flasks (1×10^6 cells per flask). Cells were treated in medium containing 5% BCS with desired concentration of tempo for various times. Tempo was dissolved in ethanol (0.1%) before use. Control cultures were treated with ethanol (0.1%) for various times. Following treatment, cells were washed 3 times with PBS. […] In LNCaP cells, a relatively higher level of apoptosis was observed (1 mM tempo, 24 hr, approximately 12-fold; 5 mM, 4 hr, approximately 15-fold) (FIGS. 9A1, 9A2, 9A3, 9B1, 9B2, 9C1, 9C2, 9D1, 9D2).

A further assay relates to LNCaP cells. The assay is described as above. In kind it is cell-based, human. On the procedure: as §2, §3
The next assay concerns DU145 cells. The assay is described as above. The format is cell-based, human. The note with it: 2.5 mM, 24 hr. On the procedure: as §2, §3
The subject of a further assay is SAPK/JNK. The assay can be described thus: SAPK/JNK1 activity (GST-cJun phosphorylation). In kind it is cell-based, human. To be noted: 10 mM, 2 h, vs tempol or 1% ethanol control. On the procedure:
as §1
ERK and SAPK/JNK Activities—Whole cell lysates prepared as described above were immunoprecipitated (1 mg) with an agarose conjugated anti-ERK1 antibody or an agarose conjugated anti-JNK1 antibody for 2 h at 4° C. with constant agitation. The immune-complexes were washed 3 times in lysis buffer and once in KBB as mentioned earlier. ERK or JNK activity assay was carried out according to manufacturer's procedures (UBI). […] The radioactive filters were washed and counted as described above. […] The radiolabeled GST-cJun fusion protein was detected by autoradiography.

For assay [1] the following is noted: previous in vitro studies, cited from earlier work.

As for `CC1(C)CCCC(C)(C)N1[O]` [tempo, 2,2,6,6-tetramethylpiperidine-N-oxyl], the “level of phosphorylated SAPK (SAPKP)” value in the assay with SAPK was “significant increase”. For the same molecule, the “increase in the number of apoptotic cells” value is given as about 6.7 fold in the assay on PC-3 cells and “approximately 3.4 fold” in the assay with DU145 cells. The “level of apoptosis (increase)” value in the assay on LNCaP cells (1 mM, 24 hr) was “approximately 12 fold”; in the assay with LNCaP cells (5 mM, 4 hr), “approximately 15 fold”. In addition, the “increase in the phosphorylated GST-cJun fusion protein” value in the assay on SAPK/JNK is on record as 3–7 fold.

In the case of `CC1(C)CC(O)CC(C)(C)N1[O]` [tempol, 4-hydroxy-tempo, reference compound], the protection factor in assay [1] (100 mM, radioprotection) is 2.2. Moreover, the “concentration required to provide radioprotection” value in assay [1] was 5 to 10 mM.
